Where two headings read alike, the source gives them in different places.

In one data set the test system is A549. Briefly: Soft agar assay, IC50 of single agents in A549. The format is cell-based. Particulars: Homo sapiens. As to the method: (§1) Example 5: Determination of Drug Interaction in Cell Lines by Soft Agar Assay
(§2) The combination of BAL101553 with eribulin was tested in various cell lines by soft agar assay. Table 1 and Table 2 present the results according to coefficient of drug interaction based on colony number (Table 1) and total area of colonies (Table 2). In both cases the coefficient of drug interaction is calculated according to the formula described in Zhao et al., J Intercult Ethnopharmacol. 2014, 3(2): 68-72): (combination/untreated)/[(compound1/untreated)×(compound2/untreated)]

The test system of a further data set is HCC1395. Briefly: Soft agar assay, IC50 of single agents in HCC1395. The class given is cell-based. The following applies: Homo sapiens. How it is done:
as §1, §2

In another data set the test system is HCT116. In words: Soft agar assay, IC50 of single agents in HCT116. The format is cell-based. Particulars: Homo sapiens, HCT-116. As to the method: as §1, §2
The test system of another data set is MDA-MB-231 cells. Briefly: Soft agar clonogenic (colony outgrowth) assay, anti-proliferative IC50. The format is cell-based. The following applies: Homo sapiens. How it is done:
Cells were plated in soft agar in 24-well plates according to the assay introduced by Hamburger & Salmon (Primary bioassay of human tumor stem cells, Science, 1977, 197:461-463). Each test well contained three layers of equal volume: 2 layers of semi-solid medium (bottom and top layer), and one layer of medium supernatant, with or without test compound (drug overlay on top of the semi-solid medium layer).
The bottom agar layer consisted of 0.2 mL/well IMDM supplemented with 20% (v/v) fetal calf serum, penicillin/streptomycin 50 μg/mL and 0.75% (w/v) bacto agar (BD Biosciences, #214050). For the top agar layer, 10′000-20′000 cells were added to 0.2 mL of the same IMDM medium supplemented with 0.35% (w/v) bacto agar and plated onto the bottom layer. For the drug overlay, the test compounds were applied by continuous exposure in 0.2 mL IMDM medium on top of the two agar layers. The drug overlay was added directly after seeding the cells as 3-fold concentrated solution and changed carefully every 3-4 days. Every 24-well plate contained untreated controls and samples in duplicates. Cultures were incubated at 37° C. and 5% CO2 for 6-14 days. 24 hours prior to evaluation, vital colonies were stained with a sterile aqueous solution of 2-(4-iodophenyl)-3-(4-nitrophenyl)-5-phenyltetrazolium chloride (Sigma, #I-8377, 1 mg/mL, 100 μL/well) (Alley M C et al., Life Sci. 1982, 31:3071-3078) and were counted with an automatic image analysis system (GelCount, Oxford Optronix). IC50-values were determined by plotting compound concentrations versus relative colony counts. Relative drug effects were expressed by the maximum effect of the mean number of colonies in the treated wells in comparison to the control wells.

The nature of data set [1]: Pharmacokinetic profile in mouse plasma (LC-MS/MS), single agents vs combination. The following applies: non-tumor bearing mice; BAL101553 daily, eribulin every two days to steady state; 10 minutes to 24 hours; FIG. 6. The class given is in vivo. How it is done: Female NCI Ath/nu non-tumor bearing mice were treated either with BAL101553, eribulin or with a combination of BAL101553 and eribulin where eribulin was administered 30 minutes before BAL101553. Control animals received vehicle control. The mice were dosed until steady state was reached (BAL101553 was dosed daily and eribulin was dosed once every two days, the doses used for the combination-treatment matched those used in the monotherapy). Blood was taken from every animal according to a determined schedule covering a time window of 10 minutes to 24 hours, processed for plasma and subsequently analyzed by LC-MS/MS for the determination of BAL27862 (parent drug of BAL101553) and eribulin concentrations (ng/ml plasma). Data points represent mean values of ng/ml plasma concentration+/−SEM (n=3 animals).
The in vivo combination of BAL101553 with eribulin in the TNBC xenograft model MDA-MB-231 led to a higher proportion of cures or tumor free animals than observed in the single agent treatment groups. […] The mice were either treated with BAL101553, eribulin or the combination thereof, and plasma concentrations of BAL27862 and eribulin at various time points were determined (FIG. 6).

A further data set deals with MiaPaCa2. In words: Soft agar assay, IC50 of single agents in MiaPaCa2. The class given is cell-based. The following applies: Homo sapiens, MIA PaCa-2. As to the method: as §1, §2
The mark [2] stands for this setting: read-out: IC50 values in soft agar assay.
The mark [3] stands for this setting: soft agar clonogenic assay, data not shown, read-out: anti-proliferative IC50.

Turning to `N#CCCNc1nonc1-c1nc2ccccc2n1CC(=O)c1ccc(N)cc1` [BAL27862, 3-(4-{1-[2-(4-Amino-phenyl)-2-oxo-ethyl]-1H-benzoimidazol-2-yl}-furazan-3-ylamino)-propionitrile], the IC50 (usually the concentration that gives 50% inhibition) was found to be 25 nM in the data set with A549; 10 nM with HCC1395; 18 nM with HCT116; 12 nM with MDA-MB-231 cells (setting [2]); 12 nM with MDA-MB-231 cells (setting [3]); 9 nM in the data set with MiaPaCa2. For the same molecule, the “plasma concentrations, single agent vs combination” value in data set [1] was “did not change significantly”.

Take `C=C1C[C@@H]2CC[C@@]34C[C@H]5O[C@H]6[C@@H](O3)[C@H]3O[C@H](CC[C@@H]3O[C@H]6[C@H]5O4)CC(=O)C[C@@H]3[C@@H](OC)[C@@H](C[C@H](O)CN)O[C@H]3C[C@H]3O[C@@H](CC[C@@H]1O2)C[C@@H](C)C3=C.CS(=O)(=O)O` [Eribulin, (2R, 3R, 3aS, 7R, 8aS, 9S, 10aR, 11S, 12R, 13aR, 13bS, 15S, 18S, 21S, 24S, 26R, 28R, 29aS)-2-[(2S)-3-Amino-2-hydroxypropyl]-3-methoxy-26-methyl-20,27-dimethylidenehexacosahydro-11,15:18,21:24,28-triepoxy-7,9-ethano-12,15-methano-9H,15H-furo[3,2-i]furo[2′,3′:5,6]pyrano[4,3-b][1,4]dioxacyclopentacosin-5(4H)-one methanesulfonate (salt)]: the IC50 stood at 0.25 nM in the data set with A549; 0.5 nM in the data set on HCC1395; 1 nM in the data set with HCT116; 0.111 nM with MDA-MB-231 cells (setting [2]); 0.1 nM in the data set on MDA-MB-231 cells (setting [3]); 0.5 nM in the data set on MiaPaCa2. For the same molecule, in data set [1], the “plasma concentrations, single agent vs combination” value was “did not change significantly”.
